PubChem BioAssay (NCI)
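Each compound was tested at five concentrations against cells in 96-well plates for 48 hours. TGI is the concentration that stops growth completely.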

What was measured:
Assay in all cases: NCI-60 cell line screen, 48 h
786-0 renal = tested on: 786-0 renal
A498 renal = tested on: A498 renal
A549 NSCLC = tested on: A549 NSCLC
ACHN renal = tested on: ACHN renal
CAKI-1 renal = tested on: CAKI-1 renal
CCRF-CEM leukemia = tested on: CCRF-CEM leukemia
COLO 205 colon = tested on: COLO 205 colon
DLD-1 colon = tested on: DLD-1 colon
DMS 114 small cell lung = tested on: DMS 114 small cell lung
DMS 273 small cell lung = tested on: DMS 273 small cell lung
EKVX NSCLC = tested on: EKVX NSCLC
HCC-2998 colon = tested on: HCC-2998 colon
HCT-15 colon = tested on: HCT-15 colon
HL-60(TB) leukemia = tested on: HL-60(TB) leukemia
HOP-18 NSCLC = tested on: HOP-18 NSCLC
HOP-62 NSCLC = tested on: HOP-62 NSCLC
HOP-92 NSCLC = tested on: HOP-92 NSCLC
HT29 colon = tested on: HT29 colon
IGROV1 ovarian = tested on: IGROV1 ovarian
K-562 leukemia = tested on: K-562 leukemia
KM12 colon = tested on: KM12 colon
KM20L2 colon = tested on: KM20L2 colon
LOX IMVI melanoma = tested on: LOX IMVI melanoma
LXFL 529 NSCLC = tested on: LXFL 529 NSCLC
M14 melanoma = tested on: M14 melanoma
M19-MEL melanoma = tested on: M19-MEL melanoma
MALME-3M melanoma = tested on: MALME-3M melanoma
MOLT-4 leukemia = tested on: MOLT-4 leukemia
NCI-H226 lung = tested on: NCI-H226 lung
NCI-H23 lung = tested on: NCI-H23 lung
NCI-H460 lung = tested on: NCI-H460 lung
NCI-H522 lung = tested on: NCI-H522 lung
OVCAR-3 ovarian = tested on: OVCAR-3 ovarian
OVCAR-4 ovarian = tested on: OVCAR-4 ovarian
OVCAR-5 ovarian = tested on: OVCAR-5 ovarian
OVCAR-8 ovarian = tested on: OVCAR-8 ovarian
RPMI-8226 leukemia = tested on: RPMI-8226 leukemia
RXF-631 renal = tested on: RXF-631 renal
SF-268 CNS = tested on: SF-268 CNS
SF-295 CNS = tested on: SF-295 CNS
SF-539 CNS = tested on: SF-539 CNS
SK-MEL-2 melanoma = tested on: SK-MEL-2 melanoma
SK-MEL-28 melanoma = tested on: SK-MEL-28 melanoma
SK-MEL-5 melanoma = tested on: SK-MEL-5 melanoma
SK-OV-3 ovarian = tested on: SK-OV-3 ovarian
SN12C renal = tested on: SN12C renal
SNB-19 CNS = tested on: SNB-19 CNS
SNB-75 CNS = tested on: SNB-75 CNS
SNB-78 CNS = tested on: SNB-78 CNS
SW-620 colon = tested on: SW-620 colon
TK-10 renal = tested on: TK-10 renal
U251 CNS = tested on: U251 CNS
UACC-257 melanoma = tested on: UACC-257 melanoma
UACC-62 melanoma = tested on: UACC-62 melanoma
UO-31 renal = tested on: UO-31 renal
XF 498 CNS = tested on: XF 498 CNS
HCT-116 colon = tested on: HCT-116 colon
RXF 393 renal = tested on: RXF 393 renal
SR leukemia = tested on: SR leukemia

Measured: TGI

NC(=O)c1csc(C2OC(COP(=O)(O)CP(=O)(O)OCC3OC(n4cnc5c(N)ncnc54)C(O)C3O)C(O)C2O)n1 (centres undefined)
> 100 µM: 786-0 renal | A498 renal | A549 NSCLC | ACHN renal | CAKI-1 renal | CCRF-CEM leukemia | COLO 205 colon | DLD-1 colon | DMS 114 small cell lung | DMS 273 small cell lung | EKVX NSCLC | HCC-2998 colon | HCT-15 colon | HL-60(TB) leukemia | HOP-18 NSCLC | HOP-62 NSCLC | HOP-92 NSCLC | HT29 colon | IGROV1 ovarian | K-562 leukemia | KM12 colon | KM20L2 colon | LOX IMVI melanoma | LXFL 529 NSCLC | M14 melanoma | M19-MEL melanoma | MALME-3M melanoma | MOLT-4 leukemia | NCI-H226 lung | NCI-H23 lung | NCI-H460 lung | NCI-H522 lung | OVCAR-3 ovarian | OVCAR-4 ovarian | OVCAR-5 ovarian | OVCAR-8 ovarian | RPMI-8226 leukemia | RXF-631 renal | SF-268 CNS | SF-295 CNS | SF-539 CNS | SK-MEL-2 melanoma | SK-MEL-28 melanoma | SK-MEL-5 melanoma | SK-OV-3 ovarian | SN12C renal | SNB-19 CNS | SNB-75 CNS | SNB-78 CNS | SW-620 colon | TK-10 renal | U251 CNS | UACC-257 melanoma | UACC-62 melanoma | UO-31 renal | XF 498 CNS

CC(=O)OCCOCNC(=S)N/N=C/c1cc(Br)cs1
> 100 µM: 786-0 renal | A498 renal | A549 NSCLC | ACHN renal | CCRF-CEM leukemia | COLO 205 colon | DLD-1 colon | DMS 114 small cell lung | DMS 273 small cell lung | EKVX NSCLC | HCC-2998 colon | HCT-116 colon | HCT-15 colon | HL-60(TB) leukemia | HOP-18 NSCLC | HOP-62 NSCLC | HT29 colon | IGROV1 ovarian | K-562 leukemia | KM12 colon | KM20L2 colon | LOX IMVI melanoma | LXFL 529 NSCLC | M14 melanoma | M19-MEL melanoma | MALME-3M melanoma | MOLT-4 leukemia | NCI-H226 lung | NCI-H23 lung | NCI-H460 lung | NCI-H522 lung | OVCAR-3 ovarian | OVCAR-4 ovarian | OVCAR-5 ovarian | OVCAR-8 ovarian | RPMI-8226 leukemia | RXF 393 renal | RXF-631 renal | SF-268 CNS | SF-295 CNS | SF-539 CNS | SK-MEL-2 melanoma | SK-MEL-28 melanoma | SK-MEL-5 melanoma | SK-OV-3 ovarian | SN12C renal | SNB-19 CNS | SNB-75 CNS | SNB-78 CNS | SR leukemia | SW-620 colon | TK-10 renal | U251 CNS | UACC-257 melanoma | UACC-62 melanoma | UO-31 renal | XF 498 CNS

NC(=O)C(=O)C1CCC2=C(Sc3ccccc3N2)C1=O (centres undefined)
> 100 µM: 786-0 renal | A498 renal | A549 NSCLC | ACHN renal | CAKI-1 renal | COLO 205 colon | DLD-1 colon | DMS 114 small cell lung | EKVX NSCLC | HCC-2998 colon | HCT-116 colon | HCT-15 colon | HL-60(TB) leukemia | HOP-62 NSCLC | HOP-92 NSCLC | IGROV1 ovarian | K-562 leukemia | KM12 colon | KM20L2 colon | LOX IMVI melanoma | LXFL 529 NSCLC | M14 melanoma | M19-MEL melanoma | MALME-3M melanoma | MOLT-4 leukemia | NCI-H23 lung | NCI-H460 lung | NCI-H522 lung | OVCAR-3 ovarian | OVCAR-4 ovarian | OVCAR-5 ovarian | OVCAR-8 ovarian | RPMI-8226 leukemia | RXF 393 renal | RXF-631 renal | SF-268 CNS | SF-539 CNS | SK-MEL-2 melanoma | SK-MEL-28 melanoma | SK-MEL-5 melanoma | SK-OV-3 ovarian | SNB-19 CNS | SNB-75 CNS | SNB-78 CNS | SW-620 colon | TK-10 renal | U251 CNS | UACC-257 melanoma | UACC-62 melanoma | UO-31 renal

C=C(C)C1Cc2c(c3ccccc3n(C)c2=O)O1 (centres undefined)
> 100 µM: A498 renal | ACHN renal | CAKI-1 renal | CCRF-CEM leukemia | COLO 205 colon | DLD-1 colon | DMS 114 small cell lung | EKVX NSCLC | HCT-15 colon | HL-60(TB) leukemia | HOP-18 NSCLC | HOP-92 NSCLC | HT29 colon | IGROV1 ovarian | K-562 leukemia | KM20L2 colon | LOX IMVI melanoma | LXFL 529 NSCLC | M14 melanoma | M19-MEL melanoma | MALME-3M melanoma | MOLT-4 leukemia | NCI-H226 lung | NCI-H23 lung | NCI-H460 lung | NCI-H522 lung | OVCAR-3 ovarian | OVCAR-8 ovarian | RPMI-8226 leukemia | RXF-631 renal | SF-268 CNS | SF-295 CNS | SF-539 CNS | SK-MEL-2 melanoma | SK-MEL-28 melanoma | SK-MEL-5 melanoma | SK-OV-3 ovarian | SN12C renal | SNB-19 CNS | SNB-75 CNS | SNB-78 CNS | SW-620 colon | TK-10 renal | U251 CNS | UACC-62 melanoma | UO-31 renal
